What was measured:
Sphaerotheca fuliginea = experiment: Activity against mildew on cucumber leaves caused by Sphaerotheca fuliginea, protective application (Sphrfu P1), greenhouse; assay type: in vivo; conditions: Comparative Example 1, Table 9, cucumber seedlings, 7 days, untreated 90
Method: (§1) The active compounds were prepared separately or jointly as a stock solution comprising 25 mg of active compound which was made up to 10 ml using a mixture of acetone and/or DMSO and the emulsifier Wettol EM 31 (wetting agent having emulsifying and dispersing action based on ethoxylated alkylphenols) in a volume ratio of solvent/emulsifier of 99:1. The mixture was then made up to 100 ml with water. This stock solution was diluted with the solvent/emulsifier/water mixture described to give the concentration of active compounds stated below.
Leaves of potted cucumber seedlings were, at the cotyledon stage, sprayed to runoff point with an aqueous suspension having the active compound concentration stated below. 20 hours after the spray coating had dried on, the plants were inoculated with an aqueous spore suspension of mildew of cucumber (Sphaerotheca fuliginea). The plants were then cultivated in a greenhouse at temperatures between 20 and 24° C. and 60 to 80% relative atmospheric humidity for 7 days. The extent of the mildew development was then determined visually in % infection of the cotyledon area.

[1] = tested on: Pyrenophora [syn. Drechslera] teres; experiment: Activity against net blotch of barley caused by Pyrenophora teres, 1 day protective application (Pymte P1), greenhouse; assay type: in vivo, Pyrenophora teres on barley; conditions: Comparative Example 2, Table 10, barley seedlings, 6 days, untreated 90
Method: as §1
Leaves of potted barley seedlings were sprayed to runoff point with an aqueous suspension having the active compound concentration stated below. 24 hours after the spray coating had dried on, the test plants were inoculated with an aqueous spore suspension of Pyrenophora [syn. Drechslera] teres, the net blotch pathogen. The test plants were then placed in a greenhouse at temperatures between 20 and 24° C. and at 95 to 100% relative atmospheric humidity. After 6 days, the extent of the development of the disease was determined visually in % infection of the entire leaf area.

Cc1ccccc1[C@H]1O[C@]1(Cn1cncn1)c1ccc(F)cc1F [B 255 from EP-A 0 421 125]
Infection in % at 63 ppm for Sphrfu P1 (Sphaerotheca fuliginea): 90%

Fc1cc(F)c([C@@]2(Cn3cncn3)O[C@@H]2c2ccccc2Cl)cc1F (racemic) [Compound 8.6]
Infection in % at 4 ppm for Pyrnte P1 [1]: 40%

Cc1ccccc1[C@H]1O[C@]1(Cn1cncn1)c1cc(F)c(F)cc1F (racemic) [Compound 8.7]
Infection in % at 63 ppm for Sphrfu P1 (Sphaerotheca fuliginea): 0%

Fc1ccc([C@@]2(Cn3cncn3)O[C@@H]2c2ccccc2Cl)cc1 [Comp. 8 of EP-A 0 196 038]
Infection in % at 4 ppm for Pyrnte P1 [1]: 90%

— US20120225777A1, “Azolylmethyloxiranes, Their Use for Controlling Phytopathogenic Fungi and Compositions Comprising Them” (BASF SE, priority 2006, published 2012)
